The text below walks through data of US20250101041A1, “POSITIVE ALLOSTERIC MODULATORS OF THE MUSCARINIC ACETYLCHOLINE RECEPTOR M4” (Vanderbilt University, priority 2022, published 2025).

The assay addresses T1, human mAChR M4 (Homo sapiens, UniProt P08173).
T1 construct: expressed in transfected cells; host or cells: CHO-K1 (American Type Culture Collection), stably expressing hM4 and Gqi5
T1 sequence (P08173 1-479): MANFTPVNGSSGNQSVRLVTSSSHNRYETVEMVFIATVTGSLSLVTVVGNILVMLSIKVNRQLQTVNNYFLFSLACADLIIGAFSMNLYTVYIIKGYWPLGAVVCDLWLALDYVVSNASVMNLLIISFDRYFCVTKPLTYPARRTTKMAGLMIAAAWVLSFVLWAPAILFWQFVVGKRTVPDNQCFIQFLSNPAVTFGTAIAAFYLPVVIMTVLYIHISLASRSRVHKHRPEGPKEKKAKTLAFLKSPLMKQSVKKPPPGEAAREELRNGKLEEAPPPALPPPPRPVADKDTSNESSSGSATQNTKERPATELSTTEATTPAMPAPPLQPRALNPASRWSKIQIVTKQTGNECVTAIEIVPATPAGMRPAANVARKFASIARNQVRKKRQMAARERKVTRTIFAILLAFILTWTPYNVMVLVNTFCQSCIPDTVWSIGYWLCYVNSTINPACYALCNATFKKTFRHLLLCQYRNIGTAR
In words: mAChR M4 cell-based functional assay: calcium mobilization (Fluo-4, FDSS), potentiation of EC20 acetylcholine response in hM4-Gqi5 CHO-K1 cells. Also on record: Emax: dose or concentration left out as unconfirmed. To be noted: for Emax at 30 µM: CHO-K1, % ACh maximum at 30 μM; for EC50: potentiation of EC20 acetylcholine response, calcium mobilization. The method, boiled down: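 Readout is the fluorescence-ratio rise at 1 Hz on FDSS, with PAM activity taken as concentration-dependent enhancement of the EC20 acetylcholine response, fitted four-parameter for EC50/Emax. hM4-Gqi5 CHO-K1 cells carried Fluo-4 AM dye; test compounds (11 points, 1:3) preceded EC20 acetylcholine additions at 144 s and 230 s.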

As to `COc1cncc(Nc2cnc3c(c2)CN(c2nn4c(=O)ccnc4cc2C)CC3)c1` [Compound 2-137, 7-(3-((5-methoxypyridin-3-yl)amino)-7,8-dihydro-1,6-naphthyridin-6(5H)-yl)-8-methyl-4H-pyrimido[1,2-b]pyridazin-4-one], for the setting “human M4”, the Emax at 30 µM is 98% and the EC50 amounted to 324 nM.
For `Cc1cc(=O)n2nc(N3CCc4ncc(-c5ccnn5C)cc4C3)c(C)cc2n1` [Compound 1-29, 2,8-dimethyl-7-(3-(1-methyl-1H-pyrazol-5-yl)-7,8-dihydro-1,6-naphthyridin-6(5H)-yl)-4H-pyrimido[1,2-b]pyridazin-4-one], where the note is “human M4”, the Emax at 30 µM was 85% and the EC50 is 146 nM.
Take `Cc1cc2nccc(=O)n2nc1N1CCc2ncc(-c3cccnc3C(C)(C)O)cc2C1` [Compound 1-418, 7-(3-(2-(2-hydroxypropan-2-yl)pyridin-3-yl)-7,8-dihydro-1,6-naphthyridin-6(5H)-yl)-8-methyl-4H-pyrimido[1,2-b]pyridazin-4-one]: where the note is “human M4”, the Emax at 30 µM worked out at 48%.
As for `CCc1cc(=O)n2nc(N3CCc4ncc(-c5ccc(C)nc5)cc4C3)c(C)c(C)c2n1` [Compound 1-106, 2-ethyl-8,9-dimethyl-7-(3-(6-methylpyridin-3-yl)-7,8-dihydro-1,6-naphthyridin-6(5H)-yl)-4H-pyrimido[1,2-b]pyridazin-4-one], where the note is “human M4”, the Emax at 30 µM came to 104% and the EC50 worked out at 108 nM.
For the compound `CCc1ccccc1-c1cnc2c(c1)CN(c1nn3c(=O)cc(C)nc3c(C)c1C)CC2` [Compound 1-249, 7-(3-(2-ethylphenyl)-7,8-dihydro-1,6-naphthyridin-6(5H)-yl)-2,8,9-trimethyl-4H-pyrimido[1,2-b]pyridazin-4-one], where the note is “human M4”, the Emax at 30 µM was determined as 87% and the EC50 came out at 1000 nM.
`Cc1cc2nccc(=O)n2nc1N1CCc2ncc(-c3c(C)ccnc3C)cc2C1` [Compound 1-401, 7-(3-(2,4-dimethylpyridin-3-yl)-7,8-dihydro-1,6-naphthyridin-6(5H)-yl)-8-methyl-4H-pyrimido [1,2-b]pyridazin-4-one]: the Emax at 30 µM (human M4) came out at 39%.
As to `Cc1cc(=O)n2nc(N3CCc4ncc(-c5ccccc5C(C)C)cc4C3)c(C)c(C)c2n1` [Compound 1-247, 7-(3-(2-isopropylphenyl)-7,8-dihydro-1,6-naphthyridin-6(5H)-yl)-2,8,9-trimethyl-4H-pyrimido[1,2-b]pyridazin-4-one], under “human M4”, the Emax at 30 µM was 55% and the EC50 stood at 1030 nM.
As to `Cc1ccc2c(n1)CCN(c1nn3c(=O)ccnc3cc1C)C2` [Compound 1-448, 8-methyl-7-(2-methyl-7,8-dihydro-1,6-naphthyridin-6(5H)-yl)-4H-pyrimido[1,2-b] pyridazin-4-one], the maximal effect (Emax) (CHO-K1) came to 66%. Moreover, the EC50 (human M4) came out at 2300 nM.
For `Cc1cc(=O)n2nc(N3CCc4ncc(-c5cc(F)ccc5C)cc4C3)c(C)cc2n1` [Compound 1-210, 7-(3-(5-fluoro-2-methylphenyl)-7,8-dihydro-1,6-naphthyridin-6(5H)-yl)-2,8-dimethyl-4H-pyrimido[1,2-b]pyridazin-4-one], under “human M4”, the Emax at 30 µM turned out to be 84% and the EC50 stood at 287 nM.
For `Cc1c(N2CCc3ncc(-c4cnn(-c5ccccc5F)c4)cc3C2)nn2c(=O)ccnc2c1C` [Compound 1-193, 7-(3-(1-(2-fluorophenyl)-1H-pyrazol-4-yl)-7,8-dihydro-1,6-naphthyridin-6(5H)-yl)-8,9-dimethyl-4H-pyrimido[1,2-b]pyridazin-4-one] the same measures were 71% and 783 nM.
For `Cc1cc(=O)n2nc(N3CCc4ncc(N5CCOc6ncccc65)cc4C3)c(C)cc2n1` [Compound 2-17, 7-(3-(2,3-dihydro-1H-pyrido[2,3-b][1,4]oxazin-1-yl)-7,8-dihydro-1,6-naphthyridin-6(5H)-yl)-2,8-dimethyl-4H-pyrimido[1,2-b]pyridazin-4-one], under “human M4”, the Emax at 30 µM was 98% and the EC50 turned out to be 9 nM.
Turning to `Cc1cc2nccc(=O)n2nc1N1CCc2ncc(Nc3ccccc3)cc2C1` [Compound 2-60, 8-methyl-7-(3-(phenylamino)-7,8-dihydro-1,6-naphthyridin-6(5H)-yl)-4H-pyrimido[1,2-b]pyridazin-4-one], under “human M4”, the Emax at 30 µM came to 91% and the EC50 came to 29 nM.
Regarding `Cc1ccc(-c2cnc3c(c2)CN(c2nn4c(=O)c(Br)cnc4cc2C)CC3)cn1` [Compound 1-78, 3-bromo-8-methyl-7-(3-(6-methylpyridin-3-yl)-7,8-dihydro-1,6-naphthyridin-6(5H)-yl)-4H-pyrimido[1,2-b]pyridazin-4-one], for the setting “human M4”, the Emax at 30 µM stood at 79% and the 50% effective concentration (EC50) was determined as 152 nM.
For `Cc1ccc(-c2cnc3c(c2)CN(c2nn4c(=O)cc(C(F)F)nc4cc2C)CC3)cn1` [Compound 1-81, 2-(difluoromethyl)-8-methyl-7-(3-(6-methylpyridin-3-yl)-7,8-dihydro-1,6-naphthyridin-6(5H)-yl)-4H-pyrimido[1,2-b]pyridazin-4-one] the same measures were 103% and 88 nM.
Consider `Cc1c(N2CCc3ncc(-c4ccnn4C4COC4)cc3C2)nn2c(=O)ccnc2c1C` [Compound 1-151, 8,9-dimethyl-7-(3-(1-(oxetan-3-yl)-1H-pyrazol-5-yl)-7,8-dihydro-1,6-naphthyridin-6(5H)-yl)-4H-pyrimido[1,2-b]pyridazin-4-one], for which, under “human M4”, the Emax at 30 µM came out at 75% and the EC50 was found to be 3210 nM.
`Cc1cc(F)c(F)c(-c2cnc3c(c2)CN(c2nn4c(=O)ccnc4c(C)c2C)CC3)c1` [Compound 1-341, 7-(3-(2,3-difluoro-5-methylphenyl)-7,8-dihydro-1,6-naphthyridin-6(5H)-yl)-8,9-dimethyl-4H-pyrimido[1,2-b]pyridazin-4-one]: under “human M4”, the Emax at 30 µM turned out to be 75% and the EC50 was 673 nM.
For `Cc1c(N2CCc3ncc(C(F)(F)F)cc3C2C)nn2c(=O)ccnc2c1C` (single isomer, unassigned) [Compound 1-386, 8,9-dimethyl-7-(5-methyl-3-(trifluoromethyl)-7,8-dihydro-1,6-naphthyridin-6(5H)-yl)-4H-pyrimido[1,2-b] pyridazin-4-one], where the note is “% ACh maximum at 30 μM, human M4”, the “Emax (%)*” value is 80%. Moreover, under “human M4”, the EC50 came out at 950 nM.
As to `Cc1c(N2CCc3ncc(-c4cnn(C(F)F)c4)cc3C2)nn2c(=O)cc(C(F)F)nc2c1C` [Compound 1-172, 2-(difluoromethyl)-7-(3-(1-(difluoromethyl)-1H-pyrazol-4-yl)-7,8-dihydro-1,6-naphthyridin-6(5H)-yl)-8,9-dimethyl-4H-pyrimido[1,2-b]pyridazin-4-one], for the setting “human M4”, the Emax at 30 µM was 85% and the EC50 amounted to 114 nM.
In the case of `COCc1cc(=O)n2nc(N3CCc4ncc(-c5ccccc5F)cc4C3)c(C)cc2n1` [Compound 1-360, 7-(3-(2-fluorophenyl)-7,8-dihydro-1,6-naphthyridin-6(5H)-yl)-2-(methoxymethyl)-8-methyl-4H-pyrimido[1,2-b] pyridazin-4-one], where the note is “human M4”, the Emax at 30 µM came to 83% and the EC50 is 245 nM.
For `Cc1cc2nccc(=O)n2nc1N1CCc2ncc(-c3ccc(C#N)nc3C)cc2C1` [Compound 1-421, 6-methyl-5-(6-(8-methyl-4-oxo-4H-pyrimido[1,2-b]pyridazin-7-yl)-5,6,7,8-tetrahydro-1,6-naphthyridin-3-yl)picolinonitrile] the same measures were 97% and 2420 nM.
Take `Cc1cc2nccc(=O)n2nc1N1CCc2ncc(Nc3cccnc3)cc2C1` [Compound 2-88, 8-methyl-7-(3-(pyridin-3-ylamino)-7,8-dihydro-1,6-naphthyridin-6(5H)-yl)-4H-pyrimido[1,2-b]pyridazin-4-one]: under “human M4”, the Emax at 30 µM is 106% and the EC50 was 173 nM.
`Cc1c(N2CCc3ncc(-c4cnn(C5CCOCC5)c4)cc3C2)nn2c(=O)ccnc2c1C` [Compound 1-192, 8,9-dimethyl-7-(3-(1-(tetrahydro-2H-pyran-4-yl)-1H-pyrazol-4-yl)-7,8-dihydro-1,6-naphthyridin-6(5H)-yl)-4H-pyrimido[1,2-b]pyridazin-4-one]: where the note is “human M4”, the Emax at 30 µM came out at 64% and the EC50 was determined as 139 nM.
With `COCc1cc(=O)n2nc(N3CCc4ncc(C(F)(F)F)cc4C3)c(C)cc2n1` [Compound 1-313, 2-(methoxymethyl)-8-methyl-7-(3-(trifluoromethyl)-7,8-dihydro-1,6-naphthyridin-6(5H)-yl)-4H-pyrimido[1,2-b]pyridazin-4-one], for the setting “human M4”, the Emax at 30 µM amounted to 96% and the EC50 amounted to 503 nM.
Regarding `Cc1cc2nc(C)c(Cl)c(=O)n2nc1N1CCc2ncc(N3CCCn4nccc43)cc2C1` [Compound 2-16, 3-chloro-7-(3-(6,7-dihydropyrazolo[1,5-a]pyrimidin-4(5H)-yl)-7,8-dihydro-1,6-naphthyridin-6(5H)-yl)-2,8-dimethyl-4H-pyrimido[1,2-b]pyridazin-4-one], where the note is “human M4”, the Emax at 30 µM was determined as 88% and the EC50 was found to be 12 nM.
